Assay results reported in patent US11602147B2, “Nematode control” (University of Idaho, priority 2017, dated 2023).

How the values were obtained:
[1] = pH stability of 4-hydroxybenzyl isothiocyanate in buffered aqueous solutions; assay type: physicochemical
Method: Partially purified 4-hydroxybenzyl isothiocyanate was prepared by suspending 500 grams of S. alba seed meal in 2 liters of deionized water and extracting the mixture with 500 milliliters of ethyl acetate for 24 hours. The ethyl acetate extract was separated by decanting the top organic layer after centrifugation, dried with 100 g of anhydrous sodium sulfate overnight, and concentrated under vacuum at laboratory temperature. The crude 4-hydroxybenzyl isothiocyanate extract was further purified by preparative column chromatography on silica gel (500 grams). […] Content of 4-hydroxybenzyl isothiocyanate within the fractions was verified by GC-MS using instrumentation and conditions as described previously. Fractions containing 4-hydroxybenzyl isothiocyanate were combined and concentrated under vacuum at laboratory temperature producing a yellowish, viscous fluid displaying only 4-hydroxybenzyl isothiocyanate and pentane/methylene chloride solvent peaks in the GC chromatogram. No further concentration of 4-hydroxybenzyl isothiocyanate was achieved using vacuum distillation because of its instability.
Actual pH values of the buffers of 3.03, 3.52, 4.02, 4.49, 5.00, 5.46, 5.91, and 6.52 were verified using an Orion model 420A pH meter (Orion Research, Boston). […]

Globodera pallida eggs = experiment: Globodera pallida egg hatching assay after 2-week exposure of encysted eggs; assay type: in vivo
Method: An initial experiment was conducted to determine possible effects of S. alba seed meal on hatch of Globodera pallida eggs. Measuring the percentage egg hatch is a viability indicator and provides an indication of the potential impact from a treatment. In this experiment, Globodera pallida encysted eggs were exposed to S. alba seed meal for 2 weeks in small containers containing a sand:soil mix. The sand:soil mix without seed meal was used as the non-treated control. […] The experiment had two treatments: 1) a non-treated bare soil control; or 2) S. alba seed meal. Each treatment included 5 replicates. Eggs from each of these treatments were exposed to either PRD or SE for 2 weeks, at which time hatched infectious 2nd stage Globodera pallida juveniles (J2) were counted. The objective of this experiment was to determine if 4-hydroxybenzyl alcohol (HBA), the product of enzymatic hydrolysis of the glucosinolate sinalbin contained in S. alba seed meal, could be responsible for the observed enhanced hatch. In an experiment similar to Example 1, encysted eggs were exposed to either HBA, or S. alba seed (yellow mustard) meal. The non-treated eggs were placed in bare soil mix only. After 2 weeks, exposed eggs were placed in hatching assays in either PRD or in soil extract, and hatched J2 were counted. In this experiment, the impact of different application rates of HBA on percent Globodera pallida hatch was investigated (FIG. 13). Again, hatch of the non-treated control was higher in PRD than in soil extract. […] An increase in hatch of approximately 60% occurred with a 1 μmol/ml pre-treatment with HBA prior to PRD exposure.

cotton = conditions: solutions sprayed directly on vegetative growth; cited from earlier work
vegetative cover / weeds = conditions: cited from earlier work
wheat = conditions: effect no longer observed at 69 days post application; cited from earlier work

Oc1ccc(CN=C=S)cc1 [4-hydroxybenzyl isothiocyanate]
half-life at 0.1 % v/v (partially purified extract in buffer) ([1]; 0.1 M sodium citrate/citric acid buffer (aqueous), pH 7.0 (overview text)): < 5 min
stability in aqueous media ([1]; aqueous media): unstable

OCc1ccc(O)cc1 [HBA, 4-hydroxybenzyl alcohol]
increase in hatch (Globodera pallida eggs; 1 μmol/ml pre-treatment with HBA prior to PRD exposure): approximately 60%
hatch enhancement, comparison of application rates (Globodera pallida eggs; 1 μmol/ml versus 2, 4, 8 μmol/ml): enhanced hatch of Globodera pallida more effectively than higher rates tested
increase in Globodera pallida egg hatch compared to non-treated control (Globodera pallida eggs; 2-week exposure in soil mix, then hatched in potato root diffusate (PRD)): 50%

N#CS [SCN^−, ionic thiocyanate]
rate at which cotton defoliation was possible (cotton): 8.6 kilograms SCN^−/ha
rate necessary for complete plant kill (vegetative cover / weeds; for 4 months): 1,366 kg SCN^−/ha
rate removing a large percentage of the weeds (vegetative cover / weeds; in vivo): 137 kilograms SCN^−/ha
application rate causing inhibition of wheat germination (wheat): 342 kilograms SCN^−/ha
